ChEMBL document CHEMBL1135844, “Novel human metabolites of the angiotensin-II antagonist tasosartan and their pharmacological effects” (Bioorg Med Chem Lett, 2002)

What follows are compounds tested against T1, Type-1 angiotensin II receptor (Homo sapiens, UniProt P30556) (assay: Compound was tested in vitro for inhibitory activity against human Angiotensin II receptor in cultured preadipocytes).
T1 sequence (P30556 whole entry): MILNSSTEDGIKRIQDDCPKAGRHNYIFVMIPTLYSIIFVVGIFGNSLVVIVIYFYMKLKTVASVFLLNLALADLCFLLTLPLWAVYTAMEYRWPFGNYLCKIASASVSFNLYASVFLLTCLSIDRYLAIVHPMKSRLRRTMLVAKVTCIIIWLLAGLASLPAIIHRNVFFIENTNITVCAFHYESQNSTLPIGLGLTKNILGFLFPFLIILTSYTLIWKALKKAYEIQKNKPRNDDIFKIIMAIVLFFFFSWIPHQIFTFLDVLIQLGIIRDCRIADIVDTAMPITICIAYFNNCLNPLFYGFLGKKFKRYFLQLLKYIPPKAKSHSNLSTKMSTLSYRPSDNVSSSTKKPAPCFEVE
Assay type: cell-based
Compound `O=c1ccc2c(CO)nc(CO)nc2n1Cc1ccc(-c2ccccc2-c2nn[nH]n2)cc1` has an IC50 of 44 nM. For `Cc1nc(C(=O)O)c2c(n1)N(Cc1ccc(-c3ccccc3-c3nnn[nH]3)cc1)C(=O)CC2`, the IC50 was 44 nM. In the case of `Cc1nc(C(=O)O)nc2c1CCC(=O)N2Cc1ccc(-c2ccccc2-c2nnn[nH]2)cc1`, the IC50 is reported as 23 nM. `Cc1nc(C)c2c(n1)N(Cc1ccc(-c3ccccc3-c3nnn[nH]3)cc1)C(=O)CC2` [TASOSARTAN] was tested, and the IC50 was 38 nM.
